The values that follow come from patent publication US11001564B2, “Substituted chromane-8-carboxamide compounds and analogues thereof, and methods using same” (priority 2016, dated 2021).

Structures are written as SMILES. Where a name gives a salt, the structure may show the parent alone.

The first test has as its system HBV rcDNA in HepDE19 cells. Description: HepDE19 assay with bDNA quantitation of HBV rcDNA. In kind it is cell-based, hepatitis B virus (HBV). The note with it: Hepatitis B virus, HepDE19, 168 h, HepDE19 cells, 7 day incubation, rcDNA by Quantigene 2.0 bDNA assay; read-out: DE-19 bDNA EC50. A digest of the protocol: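 HepG2-derived HepDE19 cells, switched to Tet-free medium, were exposed 7 days at 37 °C to compound (8-point ½-log series from 25 μM, 0.5% DMSO). HBV rcDNA measured by bDNA assay with HBV-specific probes; EC50/EC90 by 4-parameter fit. CC50 from CellTiter-Glo ATP on replicate plates after 4 days.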
Broadly, the EC50 is the concentration at which the effect is half-maximal. `COC(=O)N[C@H]1CCOc2c(C(=O)Nc3ccc(F)c(C)c3)cccc21` [Compound 50, Methyl (S)-(8-((4-fluoro-3-methylphenyl)carbamoyl)chroman-4-yl)carbamate]: the EC50 stood at 650 nM.

Consider `COC(=O)N[C@H]1CCOc2c(C(=O)Nc3ccnc(C)c3)ccc(F)c21` [Compound 135, methyl (S)-(5-fluoro-8-((2-methylpyridin-4-yl)carbamoyl)chroman-4-yl)carbamate], for which the EC50 is 9700 nM. `Cc1cc(NC(=O)c2ccc(F)c3c2OCC[C@@H]3NC(=O)OCc2ccccn2)ccc1F` [Compound 113, Pyridin-2-ylmethyl (S)-(5-fluoro-8-((4-fluoro-3-methylphenyl)carbamoyl)chroman-4-yl)carbamate]: the EC50 was 560 nM. Take `O=C(N[C@H]1CCOc2c(C(=O)Nc3ccc(F)c(F)c3)cccc21)OCc1ccon1` [Compound 103, Isoxazol-3-ylmethyl (S)-(8-((3,4-difluorophenyl)carbamoyl)chroman-4-yl)carbamate]: the EC50 amounted to 2100 nM. `O=C(N[C@H]1CCOc2c(C(=O)Nc3ccc(F)c(Cl)c3)ccc(F)c21)OCc1ccccn1` [Compound 105, Pyridin-2-ylmethyl (S)-(8-((3-chloro-4-fluorophenyl)carbamoyl)-5-fluorochroman-4-yl)carbamate]: the EC50 is 370 nM.

The same test, now with this note: Hepatitis B virus, HepDE19, 168 h, read-out: DE-19 bDNA EC50, HepDE19 cells, 7 day incubation, rcDNA by Quantigene 2.0 bDNA assay.
As for `O=C(N[C@H]1CCOc2c(C(=O)Nc3ccc(F)c(Cl)c3)ccc(F)c21)OCC1CCN(C(=O)CO)CC1` [Compound 164, (1-(2-Hydroxyacetyl)piperidin-4-yl)methyl (S)-(8-((3-chloro-4-fluorophenyl)carbamoyl)-5-fluorochroman-4-yl)carbamate], the EC50 worked out at 680 nM. Still for that read-out and setting: to `CC(=O)N1CCCC1COC(=O)N[C@H]1CCOc2c(C(=O)Nc3ccc(F)c(F)c3)cccc21` (single isomer, unassigned) [Compound 139] belongs 4600 nM; to `O=C(N[C@H]1CCOc2c(C(=O)Nc3ccc(F)c(Cl)c3)cccc21)OCc1ccccn1` [Compound 51, Pyridin-2-ylmethyl (S)-(8-((3-chloro-4-fluorophenyl)carbamoyl)chroman-4-yl)carbamate hydrochloride], 1200 nM; to `CNC(=O)N[C@H]1CCOc2c1ccc(F)c2C(=O)Nc1ccc(F)c(Cl)c1` [Compound 75, (S)—N-(3-Chloro-4-fluorophenyl)-7-fluoro-4-(3-methylureido)chromane-8-carboxamide], 3200 nM. In the case of `C[C@H](OC(=O)N[C@H]1CCOc2c(C(=O)Nc3ccc(F)c(F)c3)cccc21)c1ccccn1` [Compound 61, (S)-1-(Pyridin-2-yl)ethyl ((S)-8-((3,4-difluorophenyl)carbamoyl)chroman-4-yl)carbamate hydrochloride], the EC50 was found to be 4000 nM. Same read-out and setting: to `O=C(N[C@H]1CCSc2c(C(=O)Nc3ccc(F)c(F)c3)ccc(F)c21)OCc1ccccn1` [Compound 169, Pyridin-2-ylmethyl (S)-(8-((3,4-difluorophenyl)carbamoyl)-5-fluorothiochroman-4-yl)carbamate hydrochloride] belongs 5300 nM. `CS(=O)(=O)N1CCC(COC(=O)N[C@H]2CCOc3c(C(=O)Nc4ccc(F)c(Cl)c4)ccc(F)c32)CC1` [Compound 162, (1-(Methylsulfonyl)piperidin-4-yl)methyl (S)-(8-((3-chloro-4-fluorophenyl)carbamoyl)-5-fluorochroman-4-yl)carbamate]: the EC50 was found to be 6100 nM.

Staying with this test, now noted: read-out: DE-19 bDNA EC50; HepDE19 cells, 7 day incubation, rcDNA by Quantigene 2.0 bDNA assay.
Take `COC(=O)NC1CCN(C)c2c(C(=O)Nc3ccc(F)c(Cl)c3)cccc21` (single isomer, unassigned) [Compound 179, Methyl (8-((3-chloro-4-fluorophenyl)carbamoyl)-1-methyl-1,2,3,4-tetrahydroquinolin-4-yl)carbamate]: the EC50 was 940 nM. In the case of `O=C(N[C@H]1CCOc2c(C(=O)Nc3ccc(F)c(F)c3)cccc21)OC1CCOC1` (single isomer, unassigned) [Compound 26, Tetrahydrofuran-3-yl-(8-((3,4-difluorophenyl)carbamoyl)chroman-4-yl)carbamate], the EC50 came to 7400 nM.
